Source: PubChem BioAssay (NCI)
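How tested: cells in 96-well plates exposed to compound for 48 hours at five concentrations. At the TGI there is no net growth.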

Assays:
Assay in all cases: NCI anticancer screen, dose series, 48 h
[1] = tested on: IGROV1 ovarian
[2] = tested on: NCI-H226 lung
[3] = tested on: A498 renal
[4] = tested on: MDA-MB-231 breast
[5] = tested on: MALME-3M melanoma
[6] = tested on: PC-3 prostate
[7] = tested on: OVCAR-8 ovarian
[8] = tested on: HCC-2998 colon
[9] = tested on: OVCAR-3 ovarian
[10] = tested on: HL-60(TB) leukemia
[11] = tested on: MCF7 breast
[12] = tested on: OVCAR-5 ovarian
[13] = tested on: DU-145 prostate
[14] = tested on: SNB-75 CNS
[15] = tested on: SF-268 CNS
[16] = tested on: HT29 colon
[17] = tested on: HCT-116 colon
[18] = tested on: SN12C renal
[19] = tested on: RXF 393 renal
[20] = tested on: RPMI-8226 leukemia
[21] = tested on: HOP-62 NSCLC
[22] = tested on: 786-0 renal
[23] = tested on: NCI-H23 lung
[24] = tested on: T-47D breast
[25] = tested on: U251 CNS
[26] = tested on: UO-31 renal
[27] = tested on: BT-549 breast
[28] = tested on: CCRF-CEM leukemia
[29] = tested on: HS 578T breast
[30] = tested on: TK-10 renal
[31] = tested on: NCI-H460 lung
[32] = tested on: NCI-H522 lung
[33] = tested on: UACC-62 melanoma
[34] = tested on: SK-MEL-2 melanoma
[35] = tested on: M14 melanoma
[36] = tested on: SF-539 CNS
[37] = tested on: NCI/ADR-RES ovarian
[38] = tested on: SW-620 colon
[39] = tested on: OVCAR-4 ovarian
[40] = tested on: SNB-19 CNS
[41] = tested on: CAKI-1 renal
[42] = tested on: EKVX NSCLC
[43] = tested on: COLO 205 colon
[44] = tested on: SK-OV-3 ovarian
[45] = tested on: HCT-15 colon
[46] = tested on: SF-295 CNS
[47] = tested on: K-562 leukemia
[48] = tested on: LOX IMVI melanoma
[49] = tested on: MDA-MB-435
[50] = tested on: A549 NSCLC
[51] = tested on: UACC-257 melanoma
[52] = tested on: SK-MEL-5 melanoma
[53] = tested on: MOLT-4 leukemia
[54] = tested on: ACHN renal
[55] = tested on: HOP-92 NSCLC
[56] = tested on: KM12 colon
[57] = tested on: SK-MEL-28 melanoma

Measured: TGI

CC1=NOC(C)(O)/C1=N/O (configuration not stated)
> 100 µM: all assays above
